Legend:
Assay type in all cases: cell-based
[1] = target: T1, rat DRR (Rattus norvegicus, UniProt Q8R4G1); test: FLIPR calcium mobilization assay (Fluo-3), HEK-293 cells expressing rat DRR
T1 construct: expressed in transfected cells
T1 sequence (Q8R4G1 1-323): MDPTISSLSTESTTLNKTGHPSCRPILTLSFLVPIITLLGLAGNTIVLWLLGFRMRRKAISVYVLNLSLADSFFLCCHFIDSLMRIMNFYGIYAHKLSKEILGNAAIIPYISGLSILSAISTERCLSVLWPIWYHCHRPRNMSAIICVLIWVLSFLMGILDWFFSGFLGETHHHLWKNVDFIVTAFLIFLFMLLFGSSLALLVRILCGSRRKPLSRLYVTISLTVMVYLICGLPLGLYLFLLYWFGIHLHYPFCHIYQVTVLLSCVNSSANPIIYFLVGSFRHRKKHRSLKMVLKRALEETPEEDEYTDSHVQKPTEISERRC
Description: (§1) REK-293 cells were transfected with a mammalian expression construct coding for the rat and human DRRs (pcDNA 3.0 vector, Invitrogen) using the Superfect reagent (Qiagen). A stable receptor pool of DRR was developed by applying a selection marker (G418, 0.9 mg/ml) and the cells were maintained in this selection medium. The presence of mRNA specific for clone DRR was assessed by Northern blot analysis and by the reverse transcriptase polymerase chain reaction (RT-PCR).
(§2) In order to identify the ligand of clone rat and human DRRs, a collection of peptide and non-peptide ligands was obtained from commercial sources (Sigma, CalBiochem, American Peptide Company, Bachem, RBI, Phoenix). The compounds were dissolved in water/DMSO at 3 μM and placed in 96 well microplates. A total of 1000 compounds (peptides and non-peptides) were prepared and tested.
(§3) A functional assay was performed with FLIPR (Fluorescent Imaging Plate Reader, Molecular Devices) using the fluorescent calcium indicator Fluo-3 (Molecular Probes) on a 96 well platform. BEK-293 cells, either expressing the receptor or wild type cells, were loaded with Fluo-3 as follows. […] The cells were analyzed using the FLIPR system to measure the mobilization of intracellular calcium in response to different compounds.

[2] = tested on: human DRR; test: FLIPR calcium mobilization assay (Fluo-3), HEK-293 cells expressing human DRR
Description: as §1, §2, §3

[3] = tested on: parental HEK-293 cells (non-transfected); test: FLIPR calcium mobilization assay (Fluo-3), parental (non-transfected) HEK-293 cells; conditions: wild type / parental HEK-293 cells, compounds dissolved at 3 μM
Description: as §2
A functional assay was performed with FLIPR (Fluorescent Imaging Plate Reader, Molecular Devices) using the fluorescent calcium indicator Fluo-3 (Molecular Probes) on a 96 well platform. BEK-293 cells, either expressing the receptor or wild type cells, were loaded with Fluo-3 as follows. Stable HEK-293 clones expressing rat and human DRR or parental cells were plated at a density of 10,000 cells/well in a 96 well plate. On the day of the experiment, the DRR cells were loaded with fluorescent solution (Dulbecco's modified medium with 10% fetal bovine serum containing 4 μM Fluo-3 and 20% pluronic acid). The cells were incubated at 37 C for one hour in a humidified chamber. Following the incubation step, cells were washed five times in Hanks' with 20 mM Hepes and 0.1% BSA (pH 7.4). The cells were analyzed using the FLIPR system to measure the mobilization of intracellular calcium in response to different compounds. […]

Substance: YGGFMRRVGRPEWWMDYOKRYG-OH [BAM-22P]
- calcium response (mobilization of intracellular calcium) ([1]; HEK-293 cells expressing clone rat DRR, FLIPR, Fluo-3, compounds dissolved at 3 μM): consistently elicited signals
- dose-response relationship of calcium response ([1]; cells transfected with rat DRR): observation of a dose-response relationship
- calcium response (mobilization of intracellular calcium) ([2]; HEK-293 cells expressing clone human DRR, FLIPR, Fluo-3, compounds dissolved at 3 μM): consistently elicited signals
- dose-response relationship of calcium response ([2]; cells transfected with human DRR): observation of a dose-response relationship
- calcium response (mobilization of intracellular calcium) [3]: not the wild type cells

From patent publication US7270965B2, “Assays to screen for compounds that bind the dorsal root receptor” (AstraZeneca AB, priority 2000, dated 2007)
